# According to patent publication US7888025B2, “Intestinal folate transporter method” (Albert Einstein College of Medicine of Yeshiva University, priority 2007, dated 2011):
# Changes are numbered by the printed parent chain. Names and notes keep the numbering of the source. Like-named read-outs stand apart in the source and are kept apart here.
# T1: G21 (PCFT) (Homo sapiens, UniProt Q96NT5)
# T1 construct: expressed in transfected cells; host or cells: Xenopus laevis oocytes injected with capped G21 cRNA (pSPT64, SP6)
# T1 sequence (Q96NT5 1-459): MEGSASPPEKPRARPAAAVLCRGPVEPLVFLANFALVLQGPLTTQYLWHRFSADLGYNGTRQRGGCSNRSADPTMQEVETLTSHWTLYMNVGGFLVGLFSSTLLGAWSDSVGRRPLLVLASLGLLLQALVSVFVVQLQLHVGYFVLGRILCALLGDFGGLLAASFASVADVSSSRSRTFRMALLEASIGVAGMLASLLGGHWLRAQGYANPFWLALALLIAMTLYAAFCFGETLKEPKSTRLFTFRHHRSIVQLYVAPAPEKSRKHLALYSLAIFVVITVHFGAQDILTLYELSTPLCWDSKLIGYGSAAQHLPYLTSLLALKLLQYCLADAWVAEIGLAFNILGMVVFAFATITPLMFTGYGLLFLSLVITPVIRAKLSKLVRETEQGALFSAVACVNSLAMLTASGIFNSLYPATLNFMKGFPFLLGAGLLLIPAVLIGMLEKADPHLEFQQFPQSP
# B1: mutated G21 carrier: exon 3-deleted G21 (PCFT) protein, in-frame deletion of 28 amino acids (protein, listed as Homo sapiens)
# chain: MEGSASPPEKPRARPAAAVLCRGPVEPLVFLANFALVLQGPLTTQYLWHRFSADLGYNGTRQRGGCSNRSADPTMQEVETLTSHWTLYMNVGGFLVGLFSSTLLGAWSDSVGRRPLLVLASLGLLLQALVSVFVVQLQLHVGYFVLGRILCALLGDFGGLLAASFASVADVSSSRSRTFRMALLEASIGVAGMLASLLGGHWLRAQGYANPFWLALALLIAMTLYAAFCFGETLKEPKSTRLFTFRHHRSIVQLYVAPAPEKSRKHLALYSLAIFVVITVHFGAQDILTLYELSTPLCWDSKLIGYGSAAQHLPYLTSLLALKLLQYCLADAWVAEIGLAFNILGMVVFAFATITPLMFTGALFSAVACVNSLAMLTASGIFNSLYPATLNFMKGFPFLLGAGLLLIPAVLIGMLEKADPHLEFQQFPQSP
# B2: G147R: human PCFT mutant protein (protein, UniProt Q96NT5 1-459, looked up, variant G147R)
# Proton-coupled folate …: T1 sequence (Q96NT5 1-459) with G147R
# B3: R113S: human PCFT mutant protein (protein, UniProt Q96NT5 1-459, looked up, variant R113S)
# Proton-coupled folate …: T1 sequence (Q96NT5 1-459) with R113S
# B4: P425R: human PCFT mutant protein (protein, UniProt Q96NT5 1-459, looked up, variant P425R)
# Proton-coupled folate …: T1 sequence (Q96NT5 1-459) with P425R
# B5: S318R: human PCFT mutant protein (protein, UniProt Q96NT5 1-459, looked up, variant S318R)
# Proton-coupled folate …: T1 sequence (Q96NT5 1-459) with S318R
# Key:
# [1] = biological target: rat jejunum brush border membranes; settings: read-out: Ki, competitive inhibition of folic acid uptake; cited from earlier work
# G21 (PCFT) [2] = biological target: T1, G21 (PCFT); test: Uptake of tritiated folates in G21 cRNA-injected Xenopus oocytes; type: cell-based; settings: for G21-mediated transport activity: pH 7.5, 2 μM tritiated substrate, 30 min
# Procedure: Uptake studies in Xenopus oocytes. Defolliculated Xenopus laevis oocytes were prepared as described (Jansen and Akabas, 2006) and injected with 50 nl of water or G21 cRNA (30 ng). Radiotracer uptake was determined 3 or 4 days later. Seven to 10 oocytes were incubated in 500 μl of Modified Barth's Solution (MBS, in mM, 88 NaCl, 2.4 NaHCO3, 2.5 Na pyruvate, 1 KCl, 0.82 MgSO4, 0.41 CaCl2, 0.3 Ca(NO3)2, 15 MES or HEPES) and uptake of tritiated folate substrates assessed at room temperature. Uptake was halted by the addition of ice-cold MBS (pH 7.5). Oocytes were washed 10 times thereafter, and solubilized with 10% SDS for measurement of radioactivity. To collapse the pH gradient across the oocyte membrane, seven to 10 oocytes were incubated in MBS (pH 5.5) containing 0, 10, 20, 40, 60 μM FCCP for 20 min, and uptake of transport substrates assessed at pH 5.5.
# G21 (PCFT) [3] = biological target: T1, G21 (PCFT); test: Inhibition of [3H]folic acid uptake into G21 cRNA-injected Xenopus oocytes; type: cell-based; settings: 20 μM nonlabeled compound, pH 5.5, 30 min
# Procedure: Uptake studies in Xenopus oocytes. […] Radiotracer uptake was determined 3 or 4 days later. […] Uptake was halted by the addition of ice-cold MBS (pH 7.5). Oocytes were washed 10 times thereafter, and solubilized with 10% SDS for measurement of radioactivity. To collapse the pH gradient across the oocyte membrane, seven to 10 oocytes were incubated in MBS (pH 5.5) containing 0, 10, 20, 40, 60 μM FCCP for 20 min, and uptake of transport substrates assessed at pH 5.5.
# G21 (PCFT) [4] = biological target: T1, G21 (PCFT); test: Two-electrode voltage-clamp electrophysiology in G21 cRNA-injected Xenopus oocytes; type: cell-based; settings: for Km: read-out: electrophysiologically determined Km
# Procedure: Electrophysiological analyses in Xenopus oocytes. Defolliculated oocytes were injected with 50 nl of water (control) or G21 cRNA (50 ng), and kept at 17° C. in horse serum medium (in mM, 82.5 NaCl, 2.5 KCl, 1 MgCl2, 2.3 CaCl2, 5 HEPES, 5% horse serum, pH 7.5). Electrophysiological recordings were conducted 3-7 days after cRNA injection in buffer (in mM, 90 NaCl, 1 KCl, 1 MgCl2, 1.8 CaCl2, 5 TRIS, 5 MES) as described previously (Jansen and Akabas, 2006). Oocyte holding potential was −80 mV for Km determination. For current-voltage (I-V) relationships, from a −60 mV holding potential step changes in membrane potential were applied for 2 s in 10 mV increments between −100 and 30 mV in the absence and presence of substrate.
# PCFT = test: [3H](6S)5-methylTHF uptake in HeLa cells transiently transfected with mutated PCFT cDNA; type: cell-based, human; settings: pH 5.5, 37° C., 2 min; for [3H](6S)5-methylTHF uptake (transport function): 0.5 μM, transiently transfected HeLa cells; for residual transport activity as compared to the wild-type transporter: 0.5 μM [3H](6S)5-methylTHF, mock background subtracted
# Text: Analysis of G21 in a family with hereditary folate malabsorption. Members of a family with hereditary folate malabsorption were studied according to a protocol and Informed Consent in the subjects' native language approved by the Albert Einstein College of Medicine IRB (CCI#2006-279). Whole blood was used for isolation of genomic DNA by a Genomic DNA Purification Kit (Gentra Systems, Minneapolis, Minn.) and to generate EBV-transformed human B-lymphoblastoid cell lines in the Einstein Human Genetics Cell Culture Core. Each G21 exon with flanking regions was amplified using Taq DNA polymerase, Q-solution (Qiagen, Valencia, Calif.) and primers listed in Table 4. G21 or RFC cDNA were amplified from lymphoblastoid cells by RT-PCR. PCR products were gel-purified and sequenced in an ABI 3730 DNA Analyzer (Applied Biosystems). The mutated region was verified by sequencing both DNA strands. An expression vector of the mutated G21 in which exon 3 was skipped (GenBank accession number: BC010691) was purchased from Open Biosystems and, along with pcDNA3.1(+)G21 (wild type), was used for an assay of transport function. Western blot analysis on whole cell lysate and cellular localization was performed as described above.
# Site-directed mutagenesis. PCFT cDNA was cloned in pCDNA 3.1 (+) and mutations in the coding region were introduced by site-directed mutagenesis using PfuTurbo® DNA polymerase (Stratagene, La Jolla, Calif.) as described previously (Zhao et al., 2000). The entire PCFT coding region in the plasmid was sequenced to verify the presence of the mutation.
# Transient transfections and assessment of 5-methylTHF transport. Plasmid concentrations were determined by UV absorption and verified by agarose gel analysis. HeLa cells were seeded and transiently transfected in 20 ml glass scintillation vials (Research Products International Corp., Mt. Prospect, Ill.) and after two days, [^3H]5-methylTHF uptake was assessed (Qiu et al., 2006). EBV-transformed B-lymphoblastoid cells, generated from blood (P6 and P7), were washed twice with, and resuspended in, unbuffered saline (160 mM NaCl, 5 mM KCl, 2 mM MgCl2, 5 mM glucose). Uptake was initiated by injection of the cell suspension into MES-buffered saline (pH 5.5) containing 0.5 μM [^3H]5-methylTHF. Surface binding was assessed by measuring [^3H]5-methylTHF associated with cells at 0° C. and the bound component was subtracted from total uptake.
# [5] = changing the pH from 5.5 to 6.5
# [6] = increasing the pH from 6.5 to 7.5
# [7] = 10 μM FCCP, 20 min pre-incubation, extracellular pH 5.5, 2 μM substrate
molecule,measurement,setting,value
CN1c2c(nc(N)[nH]c2=O)NCC1CNc1ccc(C(=O)N[C@@H](CCC(=O)O)C(=O)O)cc1 (mixture of isomers) [racemic 5-MTHF],Ki,[1],1.4 µM
"Nc1nc2c(c(=O)[nH]1)N(C=O)[C@@H](CNc1ccc(C(=O)N[C@@H](CCC(=O)O)C(=O)O)cc1)CN2 [(6S)5-FTHF, (6S)5-formyltetrahydrofolate]",G21-mediated transport activity,G21 (PCFT) [2],residual activity
same,inhibitory effect on uptake of 2 μM [3H]folic acid,G21 (PCFT) [3],more potent than the unnatural 6R isomer
"CN1c2c(nc(N)[nH]c2=O)NC[C@@H]1CNc1ccc(C(=O)N[C@@H](CCC(=O)O)C(=O)O)cc1 [(6S)5-MTHF, (6S)5-methyltetrahydrofolate]",G21-mediated transport activity,G21 (PCFT) [2],residual activity
same,inhibitory effect on uptake of 2 μM [3H]folic acid,G21 (PCFT) [3],comparable to those of (6S)5-FTHF
same,shift of reversal potential,G21 (PCFT) [4]; [5],−6 mV
same,shift of reversal potential,G21 (PCFT) [4]; [6],−30 mV
same,Km,"G21 (PCFT) [4]; pH 5.5, holding potential −80 mV",0.53 ± 0.04 µM
same,Km,"G21 (PCFT) [4]; pH 6.5, holding potential −80 mV",0.78 ± 0.14 µM
O=C1OC(c2ccc(O)c(S(=O)(=O)O)c2)(c2ccc(O)c(S(=O)(=O)O)c2)c2c(Br)c(Br)c(Br)c(Br)c21 [Bromosulphopthalein],inhibitory effect on uptake of 2 μM [3H]folic acid,G21 (PCFT) [3],did not inhibit
"N#CC(C#N)=NNc1ccc(OC(F)(F)F)cc1 [FCCP, carbonyl cyanide 4-(trifluoromethoxy) phenylhydrazone]",effect on [3H]MTX uptake,G21 (PCFT) [2]; [7],markedly decreased
same,effect on [3H]folic acid uptake,G21 (PCFT) [2]; [7],markedly decreased
"CN(Cc1cnc2nc(N)nc(N)c2n1)c1ccc(C(=O)N[C@@H](CCC(=O)O)C(=O)O)cc1 [MTX, methotrexate]",inhibitory effect on uptake of 2 μM [3H]folic acid,G21 (PCFT) [3],less effective competitor than folic acid
same,shift of reversal potential,G21 (PCFT) [4]; [5],−8 mV
same,shift of reversal potential,G21 (PCFT) [4]; [6],−36 mV
same,lowest concentration at which current was detected,"G21 (PCFT) [4]; pH 5.5, Vh −80 mV",0.1 µM
same,current amplitude larger than (6S)5-MTHF-induced current,"G21 (PCFT) [4]; saturating concentrations, same oocyte, pH 5.5",86±11%
C[C@H](CCC(=O)O)[C@H]1CC[C@H]2[C@@H]3[C@H](O)C[C@@H]4C[C@H](O)CC[C@]4(C)[C@H]3C[C@H](O)[C@]12C [cholic acid],inhibitory effect on uptake of 2 μM [3H]folic acid,G21 (PCFT) [3],did not inhibit
C[C@]12CC[C@@H]3c4ccc(OS(=O)(=O)O)cc4CC[C@H]3[C@@H]1CCC2=O [estrone-3-sulfate],inhibitory effect on uptake of 2 μM [3H]folic acid,G21 (PCFT) [3],did not inhibit
Nc1ccc(C(=O)NCC(=O)O)cc1 [para-aminohippuric acid],inhibitory effect on uptake of 2 μM [3H]folic acid,G21 (PCFT) [3],did not inhibit
Nc1nc2[nH]cc(CCc3ccc(C(=O)N[C@@H](CCC(=O)O)C(=O)O)cc3)c2c(=O)[nH]1 [pemetrexed],inhibitory effect on uptake of 2 μM [3H]folic acid,G21 (PCFT) [3],most potent competitor
C[C@H](CCC(=O)NCCS(=O)(=O)O)[C@H]1CC[C@H]2[C@@H]3[C@H](O)C[C@@H]4C[C@H](O)CC[C@]4(C)[C@H]3C[C@H](O)[C@]12C [taurocholic acid],inhibitory effect on uptake of 2 μM [3H]folic acid,G21 (PCFT) [3],did not inhibit
B1,[3H](6S)5-methylTHF uptake (transport function),PCFT,lacked transport function
B2,residual transport activity as compared to the wild-type transporter,PCFT,7.0%
B3,[3H](6S)5-methylTHF uptake (transport function),PCFT,essentially no uptake
B4,residual transport activity as compared to the wild-type transporter,PCFT,3.4%
B5,[3H](6S)5-methylTHF uptake (transport function),PCFT,essentially no uptake
